“Also recorded” adds a separate entry of the source.
Key:
[1] = anaphylactogenic activity; assay type: in vivo, guinea pigs
Method: Allergenic effects of the preparation were evaluated on female guinea pigs weighing 250 to 300 g supplied by RF AMS Central Brooder of Laboratory Animals. A total of 70 guinea pigs have been studied. Intraperitoneal and intradermal injections of the preparations were used.
The preparation under study was injected to three groups of guinea pigs in accordance with the following schedule: first 0.1-ml injection of various doses (1 μg, 10 μg and 100 μg) was made subcutaneously; second 0.1-ml injection of the preparation was made on the next day intramuscularly in the thigh; and the third 0.1-ml injection was made one day later. On day 21, the shocking injection of main pharmacological effect with single application was made.

[2] = clinical case, treatment of duodenal ulcer; assay type: in vivo, human; conditions: Patient K
Method: Apart from the studies on animals described above, clinical studies of immunocorrection activity of amino derivatives of 2,3-dihydrophthalazine-1,4-dione represented by sodium salt of 5-amino-2,3-dihydrophthalazine-1,4-dione in the treatment of various diseases on human, in particular, anti-inflammatory immunocorrecting activity in the treatment of ulcers, were carried out.
Concomitant catarrhal bulbitis was present. The patient partly lost their working capacity due to this disease.
Treatment: Periulceral injection of 100 mg of sodium salt of 5-amino-2,3-dihydrophthalazine-1,4-dione was made. One more injection of the preparation was made on the 7th day. The patient also received the preparation in Almagel suspension and, since the 7th day, in Maalox (in view of constipations). They were simultaneously treated with omeprazol in accordance with usual regimen and, since the 7th day, De-nol with trichopol.

[3] = test system: humoral immune response to ram erythrocytes; assay: titers of hemagglutinins, preparation five days after immunization with RE (productive phase); assay type: in vivo, mice
[4] = test system: humoral immune response to ram erythrocytes; assay: titers of hemagglutinins after simultaneous administration of preparation and RE (inductive phase); assay type: in vivo, mice
[5] = sensitization 10 μg, shocking injection 100 μg, 10 animals
[6] = sensitization 100 μg, shocking injection 100 μg, 10 animals
[7] = 0.2 μg, Strain C57BL6 mice, 7 days
[8] = 0.2 μg, Strain C57BL6 mice, 14 days
[9] = 0.2 μg, Strain C57BL6 mice, 21 days
[10] = 0.2 μg, Strain CBA mice, 7 days
[11] = 0.2 μg, Strain CBA mice, 14 days
[12] = 0.2 μg, Strain CBA mice, 21 days
[13] = 2 μg, Strain C57BL6 mice, 7 days
[14] = 2 μg, Strain C57BL6 mice, 14 days
[15] = 2 μg, Strain C57BL6 mice, 21 days
[16] = 20 μg, Strain C57BL6 mice, 7 days
[17] = 20 μg, Strain C57BL6 mice, 14 days
[18] = 20 μg, Strain C57BL6 mice, 21 days
[19] = 20 μg, Strain CBA mice, 14 days
[20] = 20 μg, Strain CBA mice, 21 days
[21] = 200 μg, Strain C57BL6 mice, 7 days
[22] = 200 μg, Strain C57BL6 mice, 14 days
[23] = 200 μg, Strain C57BL6 mice, 21 days
[24] = 200 μg, Strain CBA mice, 7 days
[25] = 200 μg, Strain CBA mice, 14 days
[26] = 200 μg, Strain CBA mice, 21 days

For Nc1cccc2c(=O)[nH][nH]c(=O)c12.[Na] [sodium salt of 5-amino-2,3-dihydrophthalazine-1,4-dione], the “expression of anaphylactic activity” value ([1]; demonstrated only for high doses) was “very weak”, the “Number of animals with expression of anaphylactic shock −” value (from here on “Number … of anaphylactic shock −”) ([1]; sensitization 1.0 μg, shocking injection 100 μg, 10 animals) was 10 and the “Weigl's index” value ([1]; sensitization 10 μg, shocking injection 100 μg) was 0.2. For the same compound, the “Number of animals with expression of anaphylactic shock +” value [1, 5] was 2, the “Number … of anaphylactic shock −” value [1, 5] was 7 and the “Weigl's index” value ([1]; sensitization 100 μg, shocking injection 100 μg) was 0.3. For the same compound, the “Number of animals with expression of anaphylactic shock +” value [1, 6] was 1, the “Number of animals with expression of anaphylactic shock ++” value [1, 6] was 1 and the “Number … of anaphylactic shock −” value [1, 6] was 5. The pain ([2]; 2nd day of treatment, with omeprazol and antacids) was “Significant weakening”, the pain ([2]; 7th day) was “completely disappeared” and the “decrease in ulcer dimensions” value ([2]; by the 7th day) was “⅓”. For the same compound, the “decrease in dimensions of ulcerous defect” value ([2]; by the 15th day of treatment) was 2/3, the scarring of ulcer ([2]; by the 21st day, total of 1,000 mg) was “completely scarred” and the Titers of hemagglutinins [3, 7] was 0. It also gave a Titers of hemagglutinins [3, 8] of 2 ± 0, a Titers of hemagglutinins [3, 9] of 35 ± 10 and a Titers of hemagglutinins [3, 10] of 0. For the same compound, the Titers of hemagglutinins [3, 11] was 9 ± 7, the Titers of hemagglutinins [3, 12] was 0 and the Titers of hemagglutinins [3, 13] was 13 ± 11. For the same compound, the Titers of hemagglutinins [3, 14] was 54 ± 50, the Titers of hemagglutinins [3, 15] was 226 ± 201 and the Titers of hemagglutinins ([3]; 2 μg, Strain CBA mice, 7 days) was 10 ± 8. The Titers of hemagglutinins ([3]; 2 μg, Strain CBA mice, 14 days) was 173 ± 110, the Titers of hemagglutinins ([3]; 2 μg, Strain CBA mice, 21 days) was 22 ± 10 and the Titers of hemagglutinins [3, 16] was 26 ± 19. The Titers of hemagglutinins [3, 17] was 256 ± 0, the Titers of hemagglutinins [3, 18] was 304 ± 105 and the Titers of hemagglutinins ([3]; 20 μg, Strain CBA mice, 7 days) was 0. The Titers of hemagglutinins [3, 19] was 236 ± 0, the Titers of hemagglutinins [3, 20] was 23 ± 10 and the Titers of hemagglutinins [3, 21] was 0. For the same compound, the Titers of hemagglutinins [3, 22] was 96 ± 42, the Titers of hemagglutinins [3, 23] was 120 ± 95 and the Titers of hemagglutinins [3, 24] was 28 ± 13. For the same compound, the Titers of hemagglutinins [3, 25] was 158 ± 120, the Titers of hemagglutinins [3, 26] was 47 ± 30 and the “effect on productive phase of immune response” value ([3]; all doses, Strain CBA mice of high reaction) was “suppressive effect”. The “level (titers) of hemagglutinins” value ([3]; low reaction Strain C57BL6 mice, 21st day) was “tendency to increase; also recorded: significant increase”, the production of antibodies ([3]; wide range of doses, Strain CBA mice, 7th and 14th days after immunization) was “inhibition” and the Titers of hemagglutinins [4, 7] was 59 ± 58. It also gave a Titers of hemagglutinins [4, 8] of 50 ± 48, a Titers of hemagglutinins [4, 9] of 266 ± 200 and a Titers of hemagglutinins [4, 10] of 112 ± 106. For the same compound, the Titers of hemagglutinins [4, 11] was 168 ± 109, the Titers of hemagglutinins [4, 12] was 15 ± 13 and the Titers of hemagglutinins [4, 13] was 154 ± 57. For the same compound, the Titers of hemagglutinins [4, 14] was 256 ± 0, the Titers of hemagglutinins [4, 15] was 24 ± 20 and the Titers of hemagglutinins ([4]; 2 μg, Strain CBA mice, 7 days) was 28 ± 26. For the same compound, the Titers of hemagglutinins ([4]; 2 μg, Strain CBA mice, 14 days) was 154 ± 97, the Titers of hemagglutinins ([4]; 2 μg, Strain CBA mice, 21 days) was 10 ± 8 and the Titers of hemagglutinins [4, 16] was 91 ± 64. The Titers of hemagglutinins [4, 17] was 512 ± 0, the Titers of hemagglutinins [4, 18] was 560 ± 160 and the Titers of hemagglutinins ([4]; 20 μg, Strain CBA mice, 7 days) was 96 ± 37. The Titers of hemagglutinins [4, 19] was 256 ± 0, the Titers of hemagglutinins [4, 20] was 83 ± 70 and the Titers of hemagglutinins [4, 21] was 512 ± 0. It also gave a Titers of hemagglutinins [4, 22] of 44 ± 42, a Titers of hemagglutinins [4, 23] of 160 ± 138 and a Titers of hemagglutinins [4, 24] of 35 ± 33. For the same compound, the Titers of hemagglutinins [4, 25] was 75 ± 59, the Titers of hemagglutinins [4, 26] was 46 ± 32 and the “titers of hemagglutinins (trend)” value ([4]; Strain C57BL6 animals of low reaction, 21st day, 0.2 or 20 μg per mouse) was “tendency to increase”.
